These results are taken from patent US12636271B2, “Combination comprising N-acetyl-L-cysteine and its use” (IASOMAI AB, priority 2011, dated 2026).

In one assay the test system is HL60 cells. As to the kind of experiment: Antioxidant effect against menadione oxidative stimulus, CM-H2DCFDA fluorescence. Type of assay: cell-based, human. Particulars: concentrations as in FIGS. 5-7.
Another assay deals with K562 cells. The description is as above. Type of assay: cell-based, human. Conditions: 0.2 mM menadione, 0.4 mM NAC, 0.2 mM SeMet, 2 mM Mel (FIG. 4). How it is done: The human lymphoblastoid HL60 and the proerythoblastoid K562 cell lines were used, grown at 37° C. in RPMI 1640 medium (Invitrogen, Gibco, Milano, Italy), supplemented with 10% fetal bovine serum, 5 μg/ml penicillin, 5 μg/ml streptomycin, 2 mM glutamine, and routinely subcultured three times a week. Cells were treated either with menadione alone (control), with NAC only, with NAC+Se-methionine (SeMet), with NAC+Mel, or with NAC+SeMet+Mel. In cases of SeMet supplementation, such supplementation was performed two days before experiments, by using a SeMet solution in buffer (concentrations as indicated in description of FIGS. 4-7). […]
The effect of NAC, Mel, SeMet and of a combination of these substances in protecting the cells against an oxidative stimulus was detected by using the fluorescent probe 5-(and-6)-chloromethyl-2′,7′-dichlorodihydrofluorescein diacetate, acetyl ester (CM-H2DCFDA) (Invitrogen, Molecular Probes). […] The increase in hydroperoxides (mainly H2O2) within the cell is thus monitored by increase in fluorescence. […]
Cells were counted, and care was taken to keep the ratio between cells and the fluorescent probe constant. […] Two μ1 of a solution of CM-H2DCFDA in DMSO were then added and the fluorescence intensity read versus time. […] During intensity readings, samples were subjected to continuous mild stirring. […]

Assay [1] deals with patients suffering from varying kinds of anxiety. The assay can be described thus: Anxiety trial, rated pain intensity before and after treatment. Type of assay: in vivo, human. Particulars: n = 20. An excerpt:
In a method in accordance with embodiments of this disclosure a medical product comprising NAC, SeMet and Mel in accordance with embodiments was given to a plurality of groups of patients in the treatment of anxiety. The method of treating an anxiety disorder comprises administering to a patient in need thereof, a medical product consisting of one or more excipients and active agents consisting of (i) N-acetyl-L-cysteine; (ii) selenium in the form of selenomethionine; and (iii) melatonin and/or physiologically acceptable salts thereof.
(§1) In a trial the NAC, SeMet and Mel medical product, herein also called NAC-factor 3, was administered to the groups of patients in a set-up to compare the anxiolytic effect of placebo, NAC and the medical product consisting of NAC, SeMet and Mel in anxiolysis. The groups of patients were ordered according to the following different causes of anxiety: Sporadic anxiety (i.e. healthy patients) (SA), Social phobia (SP), Agoraphobia (AP), Panic disorder (PD), Generalized anxiety disorder (GAD), Obsessive-compulsive disorders (OCD), and Posttraumatic stress disorder (PTSD).
(§2) The patients rated their experienced intensity of pain from the anxiety before and after being exposed to medication with one of placebo, NAC and the medical product consisting of NAC, SeMet and Mel (in short NACSeMel), respectively. The subjective pain-intensity was rated by the patients using a 5 graded verbal rating scale ranging from None/Ignorable=0, Slight=1, Moderate=2, Great=3, Excruciating=4, where the corresponding numbers 0-4 are used to illustrate the responses in accompanying graphs.
(§3) In studying the results of the rating, the change in rating that the group delivered was expressed as a measure of the group's relative position RP in order to assess whether there was a systematic change in position on the rating scale. The relative position, i.e. the change in rating is negative if the rating indicates less pain intensity after exposure to treatment compared to before treatment, and positive if the rating indicates higher pain intensity after exposure to treatment. A range of values for the relative position RP was calculated for a 95% confidence interval CI.

Assay [2] has as its system patients suffering from generalized anxiety disorder. The assay is described as above. Conditions: n = 8. Type of assay: in vivo, human. Here is the method: as §1, §2, §3
(§4) The corresponding treatment design as described above was used with patients rating the pain intensity for specific causes of anxiety, viz. Recurrent sporadic social anxiety, Social Phobia/Agoraphobia, Panic disorder, Generalized anxiety disorder, Obsessive compulsive disorder and Posttraumatic stress disorder. The results are presented in the following Table 3 and in FIG. 11-FIG. 16.

The subject of assay [3] is patients suffering from obsessive compulsive disorder. The assay is described as above. Type of assay: in vivo, human. Particulars: n = 7. How it is done:
as §1, §2, §3, §4

Assay [4] relates to patients suffering from panic disorder. The assay is described as above. The class given is in vivo, human. Particulars: n = 7. How it is done: as §1, §2, §3, §4
Assay [5] has as its system patients suffering from posttraumatic stress disorder. The description is as above. The class given is in vivo, human. Conditions: n = 5. Here is the method: as §1, §2, §3, §4
Assay [6] has as its system patients suffering from recurrent sporadic social anxiety. The assay is described as above. The class given is in vivo, human. Particulars: n = 12. Here is the method:
as §1, §2, §3, §4

Assay [7] concerns patients suffering from social phobia/agoraphobia. Described as above. Type of assay: in vivo, human. Particulars: n = 6. Here is the method: as §1, §2, §3, §4
Assay [8] concerns patients suffering from sporadic insomnia. The assay can be described thus: Sporadic insomnia trial, rated intensity before and after treatment. Conditions: group of 24 patients. Type of assay: in vivo, human.
In assay [9] the test system is patients suffering from fatigue. As to the kind of experiment: Fatigue trial, rated intensity before and after treatment. Particulars: group of 20 patients. The class given is in vivo, human. The text has this: In a method, conducted in a similar manner to that described in the previous Examples 6 and 7, and in accordance with embodiments of this disclosure a medical product comprising NAC, SeMet and Mel in accordance with embodiments was given to a plurality of groups of patients in the treatment of fatigue. The method of treating fatigue comprises administering to a patient in need thereof, a medical product consisting of one or more excipients and active agents consisting of (i) N-acetyl-L-cysteine; (ii) selenium in the form of selenomethionine; and (iii) melatonin and/or physiologically acceptable salts thereof. Fatigue may be related and due to anxiety, and/or to sporadic insomnia or have other independent causes. Fatigue is defined as a state of tiredness that remain despite rest or sleep, and that tend to impair cognitive and/or physical ability and performance.
In a trial the NAC, SeMet and Mel medical product, herein also called NAC-factor 3, was administered to a group of patients in a set-up to compare the effect of placebo, NAC and the medical product consisting of NAC, SeMet and Mel in treatment of fatigue.
The patients rated their experienced intensity of fatigue before and after being exposed to medication with one of placebo, NAC and the medical product consisting of NAC, SeMet and Mel (in short NACSeMel), respectively. The subjective intensity was rated by the patients using a 5 graded verbal rating scale ranging from None/Ignorable=0, Slight=1, Moderate=2, Great=3, Excruciating=4, where the corresponding numbers 0-4 are used to illustrate the responses in accompanying graphs.
In studying the results of the rating, the change in rating that the group delivered was expressed as a measure of the group's relative position RP in order to assess whether there was a systematic change in position on the rating scale. The relative position, i.e. the change in rating is negative if the rating indicates less intensity after exposure to treatment compared to before treatment, and positive if the rating indicates higher intensity after exposure to treatment. A range of values for the relative position RP was calculated for a 95% confidence interval CI.

Where [10] appears, read: negative = less intensity after treatment.

Method for HL60 cells: The human lymphoblastoid HL60 and the proerythoblastoid K562 cell lines were used, grown at 37° C. in RPMI 1640 medium (Invitrogen, Gibco, Milano, Italy), supplemented with 10% fetal bovine serum, 5 μg/ml penicillin, 5 μg/ml streptomycin, 2 mM glutamine, and routinely subcultured three times a week. Cells were treated either with menadione alone (control), with NAC only, with NAC+Se-methionine (SeMet), with NAC+Mel, or with NAC+SeMet+Mel. In cases of SeMet supplementation, such supplementation was performed two days before experiments, by using a SeMet solution in buffer (concentrations as indicated in description of FIGS. 4-7). In cases of Mel supplementation, such supplementation was performed 20 hours before experiments, by using a solution in ethanol (concentrations as indicated in description of FIGS. 4-7). Ethanol concentration in growth medium was <1.3% and controls only with this solvent were also grown in parallel.
The effect of NAC, Mel, SeMet and of a combination of these substances in protecting the cells against an oxidative stimulus was detected by using the fluorescent probe 5-(and-6)-chloromethyl-2′,7′-dichlorodihydrofluorescein diacetate, acetyl ester (CM-H2DCFDA) (Invitrogen, Molecular Probes). CM-H2DCFDA is a cell-permeant indicator for reactive oxygen species that is not fluorescent until removal of its acetate groups by intracellular esterases, and oxidation within the cell. The increase in hydroperoxides (mainly H2O2) within the cell is thus monitored by increase in fluorescence. […]
Cells were counted, and care was taken to keep the ratio between cells and the fluorescent probe constant. […] Two μ1 of a solution of CM-H2DCFDA in DMSO were then added and the fluorescence intensity read versus time. After the first 200 sec of reading, a proper aliquot of NAC solution in phosphate buffer (concentrations as indicated in description of FIGS. 4-7), and 10 μl of a 0.1 M solution of menadione in ethanol were added, and the fluorescence intensity reading continued. During intensity readings, samples were subjected to continuous mild stirring. […]

With `CC(=O)N[C@@H](CS)C(=O)O` [NAC, N-acetyl-L-cysteine], in the assay with HL60 cells, the “oxidative response (slope of DCFDA fluorescence intensity increase) after menadione” value was “relevant reduction in the kinetics of this intensity increase”. In the assay with K562 cells, the “oxidative response (slope of DCFDA fluorescence intensity increase) after menadione” value is “relevant reduction in the kinetics of this intensity increase”. Moreover, in assay [1], the “number of patients that rated higher pain intensity after treatment” value was 5 patients, the “number of patients that rated lower pain intensity after treatment” value worked out at 9 patients, the “patients that rated higher pain intensity after treatment” value is given as 25% and the “patients that rated lower pain intensity after treatment” value is listed as 40%. In addition, the “patients that rated unchanged level” value in assay [1] is on record as 35%. In addition, in assay [2], the “number of patients that rated lower” value is on record as 7 patients, the “number of patients that rated unchanged level” value was determined as 1 patients and the “relative position RP” value was “RP −0.81”. Also, in assay [3], the “number of patients that rated higher” value is on record as 1 patients, the “number of patients that rated lower” value is 4 patients, the “number of patients that rated unchanged level” value turned out to be 2 patients and the “relative position RP” value is “RP −0.27”. Moreover, in assay [4], the “number of patients that rated lower” value is reported as 3 patients, the “number of patients that rated unchanged level” value was found to be 4 patients and the “relative position RP” value is listed as “RP −0.35”. Also, in assay [5], the “number of patients that rated lower” value is reported as 3 patients, the “number of patients that rated unchanged level” value worked out at 2 patients and the “relative position RP” value is reported as “RP −0.60”. For the same molecule, in [6], the “number of patients that rated lower” value is reported as 9 patients, the “number of patients that rated unchanged level” value stood at 2 patients and the “relative position RP” value was “RP −0.46”. In addition, in [7], the “number of patients that rated lower” value is on record as “↓3, ~3 patients”; the “number of patients that rated unchanged level” value is listed as “↓3, ~3 patients”; the “relative position RP” value was “RP −0.31”. In addition, in [8], the “number of patients that rated lower sporadic insomnia” value was 15 patients, the “number of patients that rated unchanged intensity” value is 9 patients, the “patients that rated lower sporadic insomnia” value is listed as 62% and the “patients that rated unchanged intensity” value was found to be 38%. In addition, the “relative position RP” value in [8] (setting [10]) is recorded as −0.37 (95% CI −0.49 to −0.25). In [9], the “number of patients that rated increased level of fatigue” value stood at 3 patients, the “number of patients that rated lower fatigue” value worked out at 9 patients, the “number of patients that rated unchanged intensity of fatigue” value is 8 patients and the “patients that rated increased level of fatigue” value is 15%. Besides, in assay [9], the “patients that rated lower fatigue” value worked out at 45% and the “patients that rated unchanged intensity of fatigue” value is 40%. Besides, in [9] (setting [10]), the “relative position RP” value is given as −0.26 (95% CI −0.49 to −0.03).
In the case of `COc1ccc2[nH]cc(CCNC(C)=O)c2c1` [Mel, melatonin], the “oxidative response (slope of DCFDA fluorescence intensity increase) after menadione” value with HL60 cells is given as “unfavorable pro-oxidant effect”.
Turning to `C[Se]CC[C@H](N)C(=O)O` [SeMet, selenomethionine], the “oxidative response (slope of DCFDA fluorescence intensity increase) after menadione” value in the assay on HL60 cells is listed as “unfavorable pro-oxidant effect”.
